Read-outs that look alike come from different tables or passages of the source.
Columns and labels:
[1] = tested on: Fibroblast Lactate Dehydrogenase; experiment: Fibroblast lactate dehydrogenase (LDH) inhibition, cell lysate; assay type: biochemical, human
Experimental: (§1) All reagents were purchased from Sigma Chemical Co., St. Louis, Mo., USA. Sigma procedure No. 500 was modified for our purposes. One mL of pyruvate (pH=7.5) substrate (Sigma […]-1) was added to a vial containing 1 mg NADH (Sigma 340-101). In a 96-well plate, the following components were added to each test well: 10 μl pyruvate/NADH mixture, and 10 μl cell lysate. For preparation cell lysates, neonatal human keratinocytes or fibroblasts (Clonetic Corp., San Diego, Calif.) were cultured in tissue culture plates (Corning, USA). Cells were scraped in PBS (pH=7.4) and this solution was used as a source of L-lactate dehydrogenase. If such cell lysate was not available, a commercial preparation of L-lactic dehydrogenase (E.C.1.1.1.27), Sigma L9889, from porcine heart could be used in place of the cell lysate. For positive control, the inhibitor was replaced with 10 μl of PBS. For blank determination, the lysate or enzyme was replaced with […]. After mixing, the plate was incubated for 30 minutes at 37° C. Then 20 μl of color reagent (Sigma 505-2) was added to each well. After 20 minutes at room temperature, 150 μl of 0.4N NaOH was added, and the plate was read for absorbance at 490 nm in a Dynatech MR 7000 Microplate Reader. To calculate % inhibition, the control activity (CA) was first determined by subtracting the absorbance of the positive control from the blank. Then the activity in the presence of the inhibitor (IA) was calculated by subtracting the appropriate absorbance from the blank. % Inhibition was then calculated as: ((CA-IA)/CA)*100.

[2] = tested on: Normal human epidermal keratinocytes (NHEK); experiment: Keratinocyte proliferation (DNA content, fluorometric); assay type: cell-based; conditions: for activation at 313 µM / activation at 625 µM / activation at 1250 µM / activation at 2500 µM / activation at 5000 µM: Homo sapiens, NHEK, 72 h
Experimental: Normal human epidermal keratinocytes (NHEK) derived from neonatal foreskin were used for all experiments. Media were purchased from Clonetics Corp., San Diego, Calif. Cell stocks frozen in passage 2 were grown in Keratinocyte Growth Medium (KGM) and passaged when 70-80% confluent. Cells were seeded in 96 well plates (Corning) at a density of 7500 cells/well in KGM. After 24 hours, cells were rinsed and dosed with test compounds in 200 μl of Keratinocyte Basal Medium (KBM). Plates were incubated for three days at 37° C., 5% CO2. Cell proliferation was estimated by assaying for DNA content by a fluorometric method described by Rago et al. (Analytical Biochemistry, 191:31-34, 1990). Medium was removed and cells were rinsed with phosphate buffered saline solution. 100 μl of sterile distilled water was added to each well and plates were frozen at -70° C. for one and a half hours. Plates were thawed for one hour at which time 100 μl of a 20 ug/ml solution of Bisbenzimide H33258 fluorochrome (Calbiochem Corp., La Jolla, Calif.) was added to each well. The fluorochrome was prepared just prior to use in 10 mM Tris, 1 mM EDTA, 4M NaCI, pH 7.4. Plates were read in a Millipore Cytofluor fluorescent plate reader to quantify DNA (excitation 360 nm, emission 460 nm). Percent increase over control was calculated from blank-corrected readings as (treated-untreated)/(untreated)*100. Each data point in the Tables below represents a mean of 5 or 6 replicates.
The procedure of Example 2 was repeated except that various co-active ingredients were tested for their ability to stimulate keratinocyte proliferation.
The procedure of Example 2 was repeated to test the effect of combination of an LDH inhibitor with another carboxylic acid on keratinocyte proliferation.

[3] = tested on: Keratinocyte Lactate Dehydrogenase; experiment: Keratinocyte lactate dehydrogenase (LDH) inhibition, cell lysate; assay type: biochemical, human
Experimental: as §1

[4] = Table 3, 0.313 mM, three days, read-out: Keratinocyte Proliferation (% increase over control)
[5] = Table 3, 0.625 mM, three days, read-out: Keratinocyte Proliferation (% increase over control)
[6] = Table 3, 1.25 mM, three days, read-out: Keratinocyte Proliferation (% increase over control)
[7] = Table 3, 2.5 mM, three days, read-out: Keratinocyte Proliferation (% increase over control)
[8] = Table 3, 5 mM, three days, read-out: Keratinocyte Proliferation (% increase over control)

Compound	Fibroblast Lactate Dehydrogenase Inhibition (% Inhibition) ([1]; 0.625 mM) [%]	Fibroblast Lactate Dehydrogenase Inhibition (% Inhibition) ([1]; 1.25 mM) [%]	Fibroblast Lactate Dehydrogenase Inhibition (% Inhibition) ([1]; 2.5 mM) [%]	Fibroblast Lactate Dehydrogenase Inhibition (% Inhibition) ([1]; 5 mM) [%]	also measured
C[C@@H](O)C(=O)O [D-lactate]	0	0	0	0	
NCC(=O)O [Glycinate]	0	0	0	0	
O=C(O)CO [Glycolate]	0	0	0	0	
O=CC(=O)O [Glyoxylate]					activation at 313 µM [2, 4]: 33%; activation at 625 µM [2, 5]: 36%; activation at 1250 µM [2, 6]: 9%; activation at 2500 µM [2, 7]: 0%; activation at 5000 µM [2, 8]: 0%
O=C(O)C(=O)C(=O)O [Ketomalonate]					activation at 313 µM [2, 4]: 23%; activation at 625 µM [2, 5]: 10%; activation at 1250 µM [2, 6]: 0%; activation at 2500 µM [2, 7]: 0%; activation at 5000 µM [2, 8]: 0%; Keratinocyte proliferation, % Increase Over Control ([2]; Table 7, single agent alone, 0.156 mM): 20%; Keratinocyte proliferation, % Increase Over Control ([2]; Table 7, single agent alone, 0.313 mM): 48%; Keratinocyte proliferation, % Increase Over Control ([2]; Table 7, single agent alone, 0.625 mM): 50%; Keratinocyte proliferation, % Increase Over Control ([2]; Table 7, single agent alone, 1.25 mM): 59%; Keratinocyte proliferation, % Increase Over Control ([2]; Table 7, single agent alone, 2.5 mM): 45%; Keratinocyte proliferation, % Increase Over Control ([2]; Table 7, single agent alone, 5.0 mM): 20%
C[C@H](O)C(=O)O [L-lactate]	0	0	0	0	
O=C(O)C[C@H](O)C(=O)O [L-malate]	0	0	0	0	
O=C(O)CC(=O)O [Malonate]	0	0	0	0	
O=C(O)C(=O)O [Oxalate]	54	71	85	89	Keratinocyte Lactate Dehydrogenase Inhibition (% Inhibition) ([3]; 0.625 mM): 39%; Keratinocyte Lactate Dehydrogenase Inhibition (% Inhibition) ([3]; 1.25 mM): 58%; Keratinocyte Lactate Dehydrogenase Inhibition (% Inhibition) ([3]; 2.5 mM): 76%; Keratinocyte Lactate Dehydrogenase Inhibition (% Inhibition) ([3]; 5 mM): 87%; activation at 313 µM ([2]; read-out: Keratinocyte Proliferation (% increase over control), Table 3, 0.313 mM, three days): 18%; activation at 625 µM ([2]; read-out: Keratinocyte Proliferation (% increase over control), Table 3, 0.625 mM, three days): 27%; activation at 1250 µM ([2]; read-out: Keratinocyte Proliferation (% increase over control), Table 3, 1.25 mM, three days): 2%; activation at 2500 µM ([2]; read-out: Keratinocyte Proliferation (% increase over control), Table 3, 2.5 mM, three days): 0%; activation at 5000 µM ([2]; read-out: Keratinocyte Proliferation (% increase over control), Table 3, 5 mM, three days): 0%
c1cn[nH]c1 [Pyrazole]	0	0	0	0	
O=C(O)C(O)C(=O)O [Tartronate]					activation at 313 µM [2, 4]: 37%; activation at 625 µM [2, 5]: 45%; activation at 1250 µM [2, 6]: 51%; activation at 2500 µM [2, 7]: 50%; activation at 5000 µM [2, 8]: 17%; Keratinocyte proliferation, % Increase Over Control ([2]; Table 8, single agent alone, 0.156 mM): 44%; Keratinocyte proliferation, % Increase Over Control ([2]; Table 8, single agent alone, 0.313 mM): 69%; Keratinocyte proliferation, % Increase Over Control ([2]; Table 8, single agent alone, 0.625 mM): 58%; Keratinocyte proliferation, % Increase Over Control ([2]; Table 8, single agent alone, 1.25 mM): 67%; Keratinocyte proliferation, % Increase Over Control ([2]; Table 8, single agent alone, 2.5 mM): 76%; Keratinocyte proliferation, % Increase Over Control ([2]; Table 8, single agent alone, 5.0 mM): 21%
Methylpyrazole	0	0	0	0	
